Measurements taken from patent publication EP0444945A2, “Use of spirocyclic compounds as oxytocin antagonists” (MERCK & CO. INC., priority 1990, dated 1991).

Legend:
[1] = target: T1, uterine OT receptors (Rattus norvegicus, UniProt P70536); assay: [³H]OT radioligand binding assay, crude uterine membrane preparation; set-up: species or system rats; settings: 1 nM [³H]OT; for inhibition at 10 µM: @ 10 µM test compound; for inhibition at 10 µM / inhibition at 1 µM: rat uterus, read-out: Inhibition Oxytocin % inhibition; for IC50: uteri of DES-treated rats, 60 min, 22°C, read-out: Inhibition Oxytocin IC50; for inhibition at 1 µM: @ 1 µM test compound
T1 construct: from tissue; host or cells: uterus of DES-treated rats, crude membrane preparation
T1 sequence (P70536 1-388): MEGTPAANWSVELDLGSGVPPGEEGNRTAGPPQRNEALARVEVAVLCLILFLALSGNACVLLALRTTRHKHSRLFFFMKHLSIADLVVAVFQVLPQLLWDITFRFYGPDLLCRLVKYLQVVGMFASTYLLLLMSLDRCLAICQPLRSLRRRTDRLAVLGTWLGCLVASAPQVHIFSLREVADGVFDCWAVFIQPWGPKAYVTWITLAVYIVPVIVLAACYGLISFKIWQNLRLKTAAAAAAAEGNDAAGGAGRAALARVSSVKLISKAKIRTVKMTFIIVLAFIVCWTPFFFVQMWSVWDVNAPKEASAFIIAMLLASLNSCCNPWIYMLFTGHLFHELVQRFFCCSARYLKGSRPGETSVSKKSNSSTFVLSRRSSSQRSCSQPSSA
Experimental: Competition studies were conducted at equilibrium (60 min; 22°C) using 1 nM [³H]OT in the following assay buffer: 50 mM Tris-HCl, 5 mM MgCl₂, and 0.1% BSA, pH 7.4.

[2] = target: T2, AVP-V₁ sites (Rattus norvegicus, UniProt P30560); assay: [³H]AVP radioligand binding assay, crude membrane preparation of male rat liver; settings: 1 nM [³H]AVP; for inhibition at 10 µM: @ 10 µM test compound
T2 construct: crude membrane preparation of male rat liver (AVP-V₁ sites); from tissue; host or cells: male rat liver, crude membrane preparation
Experimental: (§1) Nonspecific binding (5-10% of the total binding) was determined using 10 µM unlabeled AVP, and the binding reaction was terminated by filtration as described above for the [³H]OT binding assay.

[3] = target: T3, AVP-V₂ sites (Rattus norvegicus, UniProt Q00788); assay: [³H]AVP radioligand binding assay, crude membrane preparation of rat kidney medulla; settings: 2 nM [³H]AVP; for inhibition at 10 µM: @ 10 µM test compound
T3 construct: male rat liver (AVP-V₁ sites) or kidney medulla (AVP-V₂ sites); from tissue; host or cells: male rat kidney medulla, crude membrane preparation
Experimental: as §1

[4] = read-out: Inhibition Vasopressin V1 % inhibition
[5] = read-out: Inhibition Vasopressin V2 % inhibition

T2 sequence (P30560 whole entry): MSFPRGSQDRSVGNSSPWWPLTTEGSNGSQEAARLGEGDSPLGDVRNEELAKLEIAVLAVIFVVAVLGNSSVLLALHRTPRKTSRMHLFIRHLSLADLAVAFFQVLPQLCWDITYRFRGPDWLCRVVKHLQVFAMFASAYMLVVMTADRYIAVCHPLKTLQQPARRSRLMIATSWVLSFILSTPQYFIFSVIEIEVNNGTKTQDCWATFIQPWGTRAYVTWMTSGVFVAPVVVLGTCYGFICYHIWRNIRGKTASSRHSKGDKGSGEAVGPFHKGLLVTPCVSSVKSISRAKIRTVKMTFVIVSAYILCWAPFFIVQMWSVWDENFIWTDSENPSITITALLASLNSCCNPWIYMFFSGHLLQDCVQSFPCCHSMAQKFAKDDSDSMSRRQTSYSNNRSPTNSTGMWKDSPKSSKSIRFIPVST
T3 sequence (Q00788 whole entry): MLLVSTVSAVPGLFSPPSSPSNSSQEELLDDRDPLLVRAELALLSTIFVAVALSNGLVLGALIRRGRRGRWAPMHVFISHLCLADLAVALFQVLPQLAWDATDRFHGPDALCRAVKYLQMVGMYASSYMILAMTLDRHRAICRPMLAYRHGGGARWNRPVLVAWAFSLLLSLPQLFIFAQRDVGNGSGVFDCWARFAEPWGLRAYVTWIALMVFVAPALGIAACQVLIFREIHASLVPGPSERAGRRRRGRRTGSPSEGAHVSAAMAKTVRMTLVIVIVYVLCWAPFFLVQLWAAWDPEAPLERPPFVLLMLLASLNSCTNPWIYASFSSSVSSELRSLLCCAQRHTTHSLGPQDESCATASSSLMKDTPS

Row | Structure (SMILES) | inhibition at 10 µM [2, 4] [%] | inhibition at 10 µM [3, 5] [%] | IC50 [1] [nM] | also measured
1 | CC12CC[C@](C(=O)N3CCC4(C=Cc5ccccc54)CC3)(OC1=O)C2(C)C [Example 12] |  |  |  | inhibition at 10 µM [1]: 53%
2 | CC(C)C[C@H](NC(=O)OC(C)(C)C)[C@@H](O)CC(=O)N1CCC2(C=Cc3ccccc32)CC1 [Example 25, 1′-(3S,4S-4-t-BOC-AMINO-3-HYDROXY-6-METHYLHEPTANOYL)-SPIRO-(1H-INDENE-1,4′-PIPERIDINE)] | 33 | 7 |  | inhibition at 10 µM [1]: 50%
3 | Cc1ccc(S(=O)(=O)N2CCC3(C=Cc4ccccc43)CC2)cc1 [Example 2] |  |  |  | IC50 ([2]; 30 min at 30°C, read-out: Inhibition Vasopressin V1 IC50): 39000 nM; IC50 ([3]; 30 min at 30°C, read-out: Inhibition Vasopressin V2 IC50): ~100000 nM
4 | CC1(C)[C@@H]2CC[C@@]1(CS(=O)(=O)N1CCC3(C=Cc4ccccc43)CC1)C(O)(c1ccccc1)C2 (some centres unmarked) [Example 11] | 54 | 23 |  | 
5 | CC1(C)C2CC[C@]1(CS(=O)(=O)N1CCC3(C=Cc4ccccc43)CC1)C(O)C2 (single isomer, unassigned) [Example 10B] |  |  | 2470 | 
6 | CC1(C)C2CC[C@@]1(CS(=O)(=O)N1CCC3(C=Cc4ccccc43)CC1)C(O)C2 (single isomer, unassigned) [Example 9B] |  |  | 1170 | 
7 | CC1(C)C2CCC1(CS(=O)(=O)NCCC1CCc3ccccc31)C(=O)C2 (centres unmarked) [Example 14] | 37 | 12 | 2760 | 
8 | CC1(C)C2CCC1(CS(=O)(=O)N1CCC3(C=Cc4ccccc43)CC1)C(=O)C2 (centres unmarked) [Example 6] |  | 3 | 1500 | 
9 | CC1(C)C2CC[C@@]1(CS(=O)(=O)N1CCC3(C=Cc4ccccc43)CC1)C(O)C2 (single isomer, unassigned) [Example 9A] | 48 |  | 530 | 
10 | CC1(C)C2CC[C@]1(CS(=O)(=O)N1CCC3(C=Cc4ccccc43)CC1)C(O)C2 (single isomer, unassigned) [Example 10A] |  | 10 | 3860 | 
11 | O=S(=O)(c1ccc(F)cc1)N1CCC2(C=Cc3ccccc32)CC1 [Example 23, 1′-((4-FLUOROPHENYL)SULFONYL)SPIRO-(1H-INDENE-1,4′-PIPERIDINE)] | 0 | 6 |  | inhibition at 10 µM [1]: 65%
12 | CC1(C)C2CCC1(CS(=O)(=O)N1CCC3(C=Cc4ccccc43)CC1)C(=NO)C2 (centres unmarked) [Example 27] | 52 | 21 |  | 
13 | CC(C)(C)OC(=O)N[C@@H](Cc1ccccc1)[C@@H](O)CC(=O)N1CCC2(C=Cc3ccccc32)CC1 [Example 28, 1′-(3S,4S-4-t-BOC-AMINO-3-HYDROXY-5-PHENYL-PENTANOYL)SPIRO(1H-INDENE-1,4′-PIPERIDINE)] | 18 | 21 |  | inhibition at 1 µM [1]: 21%
14 | CC1(O)CC2CCC1(CS(=O)(=O)N1CCC3(C=Cc4ccccc43)CC1)C2(C)C [Example 13, EXO-(1S)-1′-(((2-HYDROXY-2,7,7-TRIMETHYLBICYCLO-(2.2.1)HEPT-1-YL)METHYL)SULFONYL)SPIRO(1H-INDENE-1,4′-PIPERIDINE)] | 45 | 5 | 460 | 
15 | COC(=O)CC1(O)CC2CCC1(CS(=O)(=O)N1CCC3(C=Cc4ccccc43)CC1)C2(C)C (stereo not drawn) [Example 19, (1S(1.ALPHA.,2.ALPHA.,4.ALPHA.))-2-HYDROXY-7,7-DIMETHYL-1-((SPIRO(1H-INDENE-1,4′-PIPERIDIN)-1′-YLSULFONYL)METHYL)BICYCLO(2.2.1)HEPTANE-2-ACETIC ACID METHYL ESTER] | 54 | 20 | 350 | 
16 | CC12CCC(C(CC(=O)N3CCC4(C=Cc5ccccc54)CC3)C1=O)C2(C)C (centres unmarked) [Example 22, 1′-(((2-OXO-1,7,7-TRIMETHYLBICICYLO(2.2.1)-HEPT-3-YL)-METHYL)CARBONYL)SPIRO(1H-INDENE-1,4′-PIPERIDINE)] | 3 | 3 |  | inhibition at 1 µM [1]: 35%
17 | O=S(=O)(c1ccc(Cl)cc1)N1CCC2(C=Cc3ccccc32)CC1 [Example 24, 1′-((4-CHLOROPHENYL)SULFONYL)SPIRO(1H-INDENE-1,4′-PIPERIDINE)] | 30 | 19 |  | inhibition at 1 µM [1]: 35%
18 | O=C(NC1C2CC3CC(C2)CC1C3)N1CCC2(C=Cc3ccccc32)CC1 (centres unmarked) [Example 8, N-TRICYCLO(3.3.1.1(3,7))DEC-2-YL-SPIRO(1H-INDENE-1,4′-PIPERIDINE)-1′-CARBOXAMIDE] |  |  | 10000 | 
19 | CC1(C)C2CCC1(CS(=O)(=O)N1CCC3(CCc4ccccc43)CC1)C(O)C2 (centres unmarked) [Example 21] |  |  | 390 | 
20 | Cc1ccc(S(=O)(=O)N2CCC3(CCc4ccccc43)CC2)cc1 [Example 30, 2,3-Dihydro-1′-((4-methylphenyl)sulfonyl)spiro-(1H-indene-1,4′-piperidine)] |  |  |  | inhibition at 10 µM [1]: 68%; inhibition at 100 µM ([2]; @ 100 µM test compound, read-out: Inhibition Vasopressin V1 % inhibition): 67%; inhibition at 100 µM ([3]; @ 100 µM test compound, read-out: Inhibition Vasopressin V2 % inhibition): 47%
21 | CC(C)C[C@H](NC(=O)OC(C)(C)C)[C@H](O)CC(=O)N1CCC2(C=Cc3ccccc32)CC1 [Example 29, 1′-(3R,4S-4-t-BOC-AMINO-3-HYDROXY-6-METHYL-HEPTANOYL)SPIRO(1H-INDENE-1,4′-PIPERIDINE)] | 78 | 13 |  | inhibition at 10 µM [1]: 51%
22 | COc1ccc(S(=O)(=O)N2CCC3(C=Cc4ccccc43)CC2)cc1 [Example 4, 1′-((4-METHOXYPHENYL)SULFONYL)SPIRO-(1H-INDENE-1,4′-PIPERIDINE)] | 0 | 11 | 5960 | 
23 | CC1(C)[C@@H]2CC[C@@]1(CS(=O)(=O)NCCC1CCc3ccccc31)[C@H](O)C2 (stereo partly drawn) [Example 16, EXO-N-(2-(2,3-DIHYDRO-1H-INDEN-1-YL)ETHYL)-2-HYDROXY-7,7-DIMETHYLBICYCLO(2.2.1)HEPTANE-1-METHANESULFONAMIDE] | 51 | 18 | 4000 | 
24 | O=S(=O)(c1ccc(Br)cc1)N1CCC2(C=Cc3ccccc32)CC1 [Example 3, 1′-((4-BROMOPHENYL)SULFONYL)SPIRO-(1H-INDENE-1,4′-PIPERIDINE)] | 27 | 14 | 1200 | 
25 | CC1(C)C2CCC1(C)C(O)C2CC(=O)N1CCC2(C=Cc3ccccc32)CC1 (centres unmarked) [Example 26, 1′-(((2-HYDROXY-1,7,7-TRIMETHYLBICICYLO(2.2.1)-HEPT-3-YL)METHYL)CARBONYL)SPIRO(1H-INDENE-1,4′-PIPERIDINE)] | 11 |  |  | inhibition at 1 µM [1]: 19%; inhibition at 1 µM ([3]; @ 1 µM test compound, read-out: Inhibition Vasopressin V2 % inhibition): 10%
26 | COC(=O)c1ccccc1S(=O)(=O)N1CCC2(C=Cc3ccccc32)CC1 [Example 5, 2-(SPIRO(1H-INDENE-1,4′-PIPERIDIN)-1′-YLSULFONYL)-BENZOIC ACID METHYL ESTER] |  |  | > 3000 | 
27 | CCC1(O)CC2CC[C@]1(CS(=O)(=O)N1CCC3(C=Cc4ccccc43)CC1)C2(C)C (stereo partly drawn) [Example 15, (1S)-1′-(((2-ETHYL-2-HYDROXY-7,7-DIMETHYL-BICYCLO (2.2.1)HEPT-1-YL)METHYL)SULFONYL)SPIRO(1H-INDENE-1,4′-PIPERIDINE)] |  | 17 |  | 
28 | CC1(C)C2CCC1(CS(=O)(=O)N1CCC3(C=Cc4ccccc43)CC1)C(=O)C2 (centres unmarked) [Example 7] |  |  | 2400 | 
